For test [1], the target named is T1, Nuclear receptor subfamily 4immunitygroup A member 1 (Homo sapiens, UniProt P22736). Nature of the test: Inverse agonist activity at human Nur77 LBD transiently transfected in HEK293T cells incubated for 16 hrs by Gal4-hybrid reporter gene based Dual-glo luciferase assay. The test is classed as cell-based. (Reporter assays use an easily measured gene product as a stand-in for the process of interest.)

The target of test [2] is T2, Nuclear receptor subfamily 4 group A member 3 (Homo sapiens, UniProt Q92570). In words: Inverse agonist activity at human NOR-1 LBD transiently transfected in HEK293T cells incubated for 16 hrs by Gal4-hybrid reporter gene based Dual-glo luciferase assay. The format is cell-based.
T2 sequence (Q92570 whole entry, the tested form may be a part): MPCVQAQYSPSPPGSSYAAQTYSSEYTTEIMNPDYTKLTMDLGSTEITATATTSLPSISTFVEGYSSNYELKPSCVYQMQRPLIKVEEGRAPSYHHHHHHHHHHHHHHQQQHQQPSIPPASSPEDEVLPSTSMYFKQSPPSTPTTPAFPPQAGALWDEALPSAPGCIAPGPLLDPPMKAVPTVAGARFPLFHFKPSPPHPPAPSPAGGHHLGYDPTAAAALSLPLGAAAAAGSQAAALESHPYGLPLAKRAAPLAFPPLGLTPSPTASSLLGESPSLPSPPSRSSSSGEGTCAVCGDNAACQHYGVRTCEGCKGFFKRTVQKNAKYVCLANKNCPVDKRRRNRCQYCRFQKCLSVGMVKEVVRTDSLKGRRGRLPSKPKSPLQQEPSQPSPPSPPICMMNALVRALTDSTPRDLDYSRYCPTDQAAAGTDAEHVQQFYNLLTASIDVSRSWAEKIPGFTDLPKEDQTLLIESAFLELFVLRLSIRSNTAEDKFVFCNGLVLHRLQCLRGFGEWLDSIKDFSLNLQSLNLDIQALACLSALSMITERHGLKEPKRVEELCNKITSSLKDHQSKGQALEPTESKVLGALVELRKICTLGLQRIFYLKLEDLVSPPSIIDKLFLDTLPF
For test [3], the target named is T1, Nuclear receptor subfamily 4immunitygroup A member 1. In words: Modulation of human Nur77 LBD transiently transfected in HEK293T cells at 100 to 200 uM incubated for 16 hrs by Gal4-hybrid reporter gene based Dual-glo luciferase assay. The format is cell-based. The following applies: dose 100-200 µM.
Test [4] concerns the target T3, Nuclear receptor subfamily 4 group A member 2 (Homo sapiens, UniProt P43354). In words: Agonist activity at human Nurr1 LBD transiently transfected in HEK293T cells incubated for 16 hrs by Gal4-hybrid reporter gene based Dual-glo luciferase assay. The format is cell-based. The following applies: for pEC50: read-out: EC50.
Test [5] addresses T3, Nuclear receptor subfamily 4 group A member 2. Nature of the test: Binding affinity to recombinant N-terminal 6His-tagged Nurr1 LBD (362 to 598 residues) (unknown origin) expressed in Escherichia coli BL21(DE3)-R3-pRARE2 cells assessed as thermal stability by measuring change in melting temperature at 100 uM by SYPRO orange dye based differential scanning fluorimetry analysis. (In DSF a fluorescence change marks the thermal transition of the protein.)

Test [6] shares this target. In words: Inverse agonist activity at human Nurr1 LBD transiently transfected in HEK293T cells incubated for 16 hrs by Gal4-hybrid reporter gene based Dual-glo luciferase assay. The format is cell-based.
Test [7] deals with T1, Nuclear receptor subfamily 4immunitygroup A member 1. In words: Agonist activity at human Nur77 LBD transiently transfected in HEK293T cells assessed as maximal activation incubated for 16 hrs by Gal4-hybrid reporter gene based Dual-glo luciferase assay relative to control. The format is cell-based. The following applies: filed as agonist.
The target is the same in test [8]. In words: Agonist activity at human Nur77 LBD transiently transfected in HEK293T cells incubated for 16 hrs by Gal4-hybrid reporter gene based Dual-glo luciferase assay. The test is classed as cell-based.
For test [9], the target named is T2, Nuclear receptor subfamily 4 group A member 3. Nature of the test: Agonist activity at human NOR-1 LBD transiently transfected in HEK293T cells assessed as maximal activation incubated for 16 hrs by Gal4-hybrid reporter gene based Dual-glo luciferase assay relative to control. The note with it: filed as agonist. The format is cell-based.
Test [10] has the same target. Nature of the test: Agonist activity at human NOR-1 LBD transiently transfected in HEK293T cells incubated for 16 hrs by Gal4-hybrid reporter gene based Dual-glo luciferase assay. The format is cell-based.
Test [11] has the same target. Nature of the test: Modulation of human NOR-1 LBD transiently transfected in HEK293T cells at 100 to 200 uM incubated for 16 hrs by Gal4-hybrid reporter gene based Dual-glo luciferase assay. The test is classed as cell-based. The following applies: dose 100-200 µM.

These results are taken from ChEMBL document CHEMBL5390264, “Exploring Fatty Acid Mimetics as NR4A Ligands” (J Med Chem, 2023).

pEC50, pIC50: −log10 of the molar value. Active and inactive are the calls of the source. The rule behind the calls is not given here.

T3 sequence (P43354 whole entry, the tested form may be a part): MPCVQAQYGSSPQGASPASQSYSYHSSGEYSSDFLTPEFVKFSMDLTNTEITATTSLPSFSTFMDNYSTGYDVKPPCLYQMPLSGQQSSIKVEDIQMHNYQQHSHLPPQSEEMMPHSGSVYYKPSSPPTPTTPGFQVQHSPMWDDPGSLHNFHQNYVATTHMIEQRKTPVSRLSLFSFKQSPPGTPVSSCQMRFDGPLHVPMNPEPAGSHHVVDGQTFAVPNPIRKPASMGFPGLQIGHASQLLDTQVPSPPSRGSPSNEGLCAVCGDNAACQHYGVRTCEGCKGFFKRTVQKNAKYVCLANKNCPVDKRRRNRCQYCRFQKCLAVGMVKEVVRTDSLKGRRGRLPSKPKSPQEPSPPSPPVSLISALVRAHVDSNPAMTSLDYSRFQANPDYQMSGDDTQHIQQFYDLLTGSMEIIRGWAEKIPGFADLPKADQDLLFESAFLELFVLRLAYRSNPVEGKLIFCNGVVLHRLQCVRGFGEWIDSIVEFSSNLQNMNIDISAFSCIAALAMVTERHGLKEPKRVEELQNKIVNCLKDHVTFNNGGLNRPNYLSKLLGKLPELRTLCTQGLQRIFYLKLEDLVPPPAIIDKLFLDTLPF
T1 sequence (P22736 whole entry, the tested form may be a part): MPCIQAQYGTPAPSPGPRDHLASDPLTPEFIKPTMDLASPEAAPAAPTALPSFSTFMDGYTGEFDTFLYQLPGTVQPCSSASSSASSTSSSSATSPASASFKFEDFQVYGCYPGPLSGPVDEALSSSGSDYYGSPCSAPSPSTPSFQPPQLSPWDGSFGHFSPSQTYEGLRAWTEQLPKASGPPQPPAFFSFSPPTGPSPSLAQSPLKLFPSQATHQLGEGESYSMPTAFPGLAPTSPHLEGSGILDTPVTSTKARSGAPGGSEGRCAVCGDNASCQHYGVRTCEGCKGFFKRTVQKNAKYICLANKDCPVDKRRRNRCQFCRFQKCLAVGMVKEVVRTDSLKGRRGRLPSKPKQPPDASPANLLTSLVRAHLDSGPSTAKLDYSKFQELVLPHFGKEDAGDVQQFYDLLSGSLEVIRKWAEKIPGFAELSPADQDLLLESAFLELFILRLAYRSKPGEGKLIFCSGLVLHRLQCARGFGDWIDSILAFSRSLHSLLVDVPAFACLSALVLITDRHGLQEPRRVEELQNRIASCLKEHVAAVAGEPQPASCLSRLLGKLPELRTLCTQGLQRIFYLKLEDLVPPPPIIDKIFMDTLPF

Turning to `O=C(O)C(c1ccccc1)(c1ccccc1)c1ccccc1`, the pIC50 in [1] and in test [2] was below 4.00 each time. For `O=C(O)c1ccnc2ccccc12`, the outcome in test [3] was inactive.

As to `O=C(O)c1ccc(OCc2cccc(C(F)(F)F)c2)cc1`, the pEC50 in test [4] was 4.74. The same measure, in the same setting: as for `O=C(O)c1ccc(OCc2ccccc2Cl)cc1`, the figure is 7.30. On to `COc1cccc(-c2ccc(NC(=O)C3=C(C(=O)O)CCC3)c(F)c2)c1`, for which the ΔTm in test [5] is -0.94 °C. With `CSc1nccn1-c1ccc(C(=O)O)cc1`, the pIC50 in test [1] is 5.05; in test [6], 4.43; in test [2], below 4.00. With `O=C(O)c1cccc(OCc2ccccc2Cl)c1`, the pEC50 in test [4] is 5.52. On to `Cn1nnc2c(C(=O)O)ncn2c1=O`, for which, in [3], the result was inactive. Same read-out and setting: as for `COc1ccccc1CC(=O)O`, the entry is “inactive”. On to `O=C(O)c1cccc2ccccc12` [NAPHTHOIC ACID], for which the Emax in test [7] came to 183%; in [9], 136%. Moreover, the values for the pEC50 in test [8], in [4] and in test [10] were 4.32, 4.27 and 4.25, respectively. In the case of `O=C(O)CC(c1ccccc1)c1ccccc1`, the outcome in test [11] was inactive.

On to `O=C(O)CCC(=O)c1ccccc1`, for which the values for the pEC50 in test [8], in test [4] and in test [10] were below 4.00, 4.05 and below 4.00, respectively. Regarding `CCc1c(C(=O)O)cnn1-c1ccccc1`, the pEC50 in test [8] was below 4.00; in test [10], 4.14. For `COc1cc(C(=O)O)cc(OC)c1OC`, the result in [3] was inactive. In the case of `C/C(=C\C(=O)O)c1ccc(C(F)(F)F)cc1`, the Emax in [7] worked out at 162%; in [9], 157%. For the same compound, the pEC50 in test [8] was 4.55; in [4], 4.12; in test [10] it was 4.44. As to `O=C(O)c1cccc(OCc2ccccc2)c1`, in test [4], the pEC50 is 5.10. `O=C(O)c1ccc(OCc2ccccc2)cc1`: the results for the Emax in [7] and in test [9] were 158% and 166%, respectively. The values for the pEC50 in test [8], in [4] and in test [10] were 5.10, 5.05 and 4.89, respectively. On to `O=C(O)c1cccc(OCc2ccc(Cl)cc2Cl)c1`, for which the pEC50 is 7.40 in [8] and 6.82 in test [10]. Turning to `N#Cc1c(F)c(F)cc(C(=O)O)c1F`, the pIC50 in test [1] and in [2] was below 4.00 each time.

For `O=C(O)c1ccc(OCc2ccc(Cl)cc2)cc1`, the pEC50 in test [4] was 5.22. `CN(C)c1ccc(/N=N/c2ccccc2C(=O)O)cc1`: the outcome in test [11] was inactive.

For `O=C(O)c1cccc(OCc2ccc(F)cc2)c1`, the pEC50 in [4] was 4.72. With `O=C(O)c1ccc(OCc2cccc(-c3ccccc3)c2)cc1`, in test [4] (hek293t), the EC50 entry is listed as “Not Determined(Insoluble)”. `CCC(Oc1cc(Cl)cc(Cl)c1)C(=O)O` (stereo unspecified): the result in test [3] was inactive. Same read-out and setting: the same measure for `O=C(O)c1ccc(Oc2ccccc2)cc1`: “inactive”; for `O=C(O)CN(CCO)CCO`: “inactive”.

For the compound `O=C(O)c1cccc(OCc2cccc(F)c2)c1`, the pEC50 in test [4] was 5.52. As to `O=C(O)c1ccccc1C(=O)c1ccc(Cl)cc1`, the pIC50 was 4.00 in test [1], below 4.00 in test [6] and 3.95 in [2].

As to `O=C(O)/C=C/c1ccc(Cl)c(Cl)c1`, the result in test [11] was inactive. With `O=C(O)c1ccccc1CCc1ccccc1`, the pIC50 in test [1] and in test [2] was below 4.00 throughout. Take `O=Cc1ccc(C(=O)O)cc1`: the result in test [3] and in test [11] was inactive. For the compound `O=C(O)c1ccc(-c2cccc(F)c2)o1`, the Emax is 158% in test [7] and 148% in test [9]. Besides, the values for the pEC50 in test [8], in test [4] and in test [10] were 5.05, 5.22 and 5.22, respectively. In the case of `O=C(O)c1ccc(OCc2ccc(F)cc2)cc1`, the pEC50 in test [4] was 4.92.

As a reminder, the pIC50 is −log10 of the IC50, conventionally taken in molar units. A lower pIC50 goes with a large IC50. As a reminder, the pEC50 is the negative decadic logarithm of the EC50, by convention in mol/L. Broadly, the ΔTm is the shift of the melting midpoint relative to a reference. For orientation: Emax means the greatest response seen or fitted, relative to the assay's reference.
